In ChEMBL document CHEMBL4257541, “Development of subnanomolar-affinity serotonin 5-HT4 receptor ligands based on quinoline structures” (Medchemcomm, 2018):

The molecules below were run against 5-hydroxytryptamine receptor 4 (Cavia porcellus, UniProt O70528) (assay: Displacement of [3H]-GR113808 from 5-HT4R in Dunkin-Hartley guinea pig straitum nuclear membranes after 30 mins by filter binding method).
Sequence of 5-hydroxytryptamine receptor 4 (O70528 whole entry): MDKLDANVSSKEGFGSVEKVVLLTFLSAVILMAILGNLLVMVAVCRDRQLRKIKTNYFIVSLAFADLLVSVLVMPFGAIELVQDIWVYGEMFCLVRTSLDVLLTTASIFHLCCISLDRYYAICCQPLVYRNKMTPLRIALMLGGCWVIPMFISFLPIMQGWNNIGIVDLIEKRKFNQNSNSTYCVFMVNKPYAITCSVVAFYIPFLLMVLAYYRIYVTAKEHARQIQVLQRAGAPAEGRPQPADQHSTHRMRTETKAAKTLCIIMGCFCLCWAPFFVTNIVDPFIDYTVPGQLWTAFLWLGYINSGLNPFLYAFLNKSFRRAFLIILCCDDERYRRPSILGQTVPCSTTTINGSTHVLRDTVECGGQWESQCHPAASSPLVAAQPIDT
CCCCN1CCC(COC(=O)c2cc(Cl)nc3ccccc23)CC1 showed a Ki of 0.86 nM. Work on COc1cc(C(=O)OCCN2CCC(NC(=O)OC(C)(C)C)CC2)c2ccccc2n1 yielded a Ki of 304 nM. CCCCN1CCC(CNC(=O)c2cc(OC)nc3ccccc23)CC1 was tested, and the Ki was > 1000 nM. With CCCCN1CCC(COC(=O)c2ccnc3ccccc23)CC1 the Ki was 1.5 nM. In the case of COc1cc(C(=O)OCCN2CCCCC2)c2ccccc2n1, the Ki is reported as 15 nM. For O=C(NCCN1CCCCC1)c1cc(Cl)c2ccccc2n1, the Ki was > 1000 nM. With CCCCN1CCC(CNC(=O)c2cc(OC)c3ccccc3n2)CC1 the Ki was 148 nM. CCCCN1CCC(CNC(=O)c2ccc3cccc(O)c3n2)CC1 was tested, and the Ki was 76 nM. COc1cc(C(=O)OCCN2CCC(CO)CC2)c2ccccc2n1 showed a Ki of 8 nM. For CCCCN1CCC(COC(=O)c2cc(OC)nc3ccccc23)CC1, the Ki was 0.62 nM. Molecule CCCCN1CCC(COC(=O)c2cc(C3CC3)nc3ccccc23)CC1 has a Ki of 0.44 nM. For COc1cc(C(=O)NCCN2CCCCC2)c2ccccc2n1, the Ki was > 1000 nM. O=C(NCCCN1CCCCC1)c1cc(Cl)c2ccccc2n1 was tested, and the Ki was > 1000 nM. CCCCN1CCC(CNC(=O)c2cc(Cl)c3ccccc3n2)CC1 was tested, and the Ki was 39 nM. In the case of CCCCN1CCC(CCC(=O)c2cc(Cl)c(N)cc2OC)CC1, the Ki is reported as 3.9 nM.
